The text below walks through data of patent publication US20200113882A1, “Use of 4-Aminopyridine to Improve Neuro-Cognitive and/or Neuro-Psychiatric Impairment in Patients with Demyelinating and Other Nervous System Conditions” (priority 2009, published 2020).

Data set [1] can be described thus: adverse events in clinical studies. The settings on record: controlled clinical studies. It is filed as in vivo, human. An excerpt:
In controlled clinical studies involving the use of fampridine, the most frequent adverse events by body system occurred in the nervous system, “body as a whole”, and digestive system.
While an increased incidence of such events appears to be moderately dose-related, the susceptibility of individuals is quite variable. The potential for lowering seizure threshold in people with MS appears to be more significant than for people with spinal cord injury, which may result from interaction of the channel-blocking properties of the drug with MS brain pathology in certain individuals.

Data set [2] is described as follows: single- and repeated-dose toxicity studies in animals. The format is in vivo. As to the method: In single- and repeated-dose toxicity studies, the dosing regimen greatly affected the rate of mortality and incidence of clinical signs in all species studied (with the possible exception of the mouse). In general, higher mortality rates and greater incidences of adverse clinical signs were noted when 4-aminopyridine was administered in a single large dose as compared to when the same total dose was given as two, three, or four equally divided sub-doses. Toxic responses to orally administered 4-aminopyridine were rapid in onset, most often occurring within the first 2 hours post-dose.
These clinical signs were not unexpected and represent exaggerated pharmacology of 4-aminopyridine.

Data set [3] can be described thus: rat pharmacokinetics after i.v. and p.o. 2 mg/kg (M 2001-03). The settings on record: rats, single p.o. 2 mg/kg.
For data set [4], the system named is normal adult myelinated axons. The note with it: cited from earlier work.
Data set [5] deals with cognitive function in MS patients. The note with it: prior study; cited from earlier work.
A short description of data set [6]: 14C-4-aminopyridine single oral dose 1 mg/kg in rats (HWI 6379-101): absorption, tissue distribution. How it is done: (§1) Studies were performed in rats and dogs using ^14C-labeled 4-aminopyridine (1 mg/kg) given as a single oral gavage dose in solution.
In a single-dose study, rats were administered ^14C-labeled 4-aminopyridine (1 mg/kg) p.o. Three animals per time point were sacrificed 1, 3, 8, and 24 hours post-dose. Blood was collected and tissues were excised for determination of radioactivity.

The nature of data set [7]: 14C-4-aminopyridine single oral dose 1 mg/kg in dogs (HWI 6379-102): absorption. The format is in vivo, dog. The settings on record: equal mg/kg doses, 1 mg/kg oral. How it is done:
as §1

The mark [8] stands for this setting: rats, 1 mg/kg p.o., one hour post-dose.

For the molecule `Nc1ccncc1` [4-aminopyridine], in data set [1], the “most common nervous system adverse events” value is “Dizziness, insomnia, paresthesia, pain, headache and asthenia”; the “most frequently reported digestive system adverse event” value is recorded as “nausea”. Besides, the clinical signs result in data set [2] (after large single doses or repeated lower doses, all species studied) was “tremors, convulsions, ataxia, dyspnea, dilated pupils, prostration, abnormal vocalization, increased respiration, excess salivation, gait abnormalities, and hyper- and hypo-excitability”. Also, the “onset of toxic responses post-dose” value in data set [2] (orally administered, most often) is at most 2 h. For the same molecule, the “Vdss difference between males and females adjusted for body weight” value in data set [3] came to 2%. Moreover, the “concentrations that tend to cause gradual depolarization of the axon resting potential” value in data set [4] ((94.1 μg/mL)) is reported as “above 1 mM”. Moreover, in data set [4] (normal adult myelinated axons (9.4 μg/mL)), the “concentrations at which action potential shows little or no sensitivity” value was “below 100 μM”. The “benefit of cognitive function” value in data set [5] is reported as “did not show benefit”.
On to `Nc1ccncc1` [14C-4-Aminopyridine], for which, in data set [6] (both, rat, in vivo, po, 1 mg/kg), the “time to peak plasma levels” value was 0.5 to 1 h. In data set [6] (rats, 1 mg/kg p.o., 3 hours post-dose), the “radioactive dose in carcass” value was 15.4%. Moreover, in data set [6] (setting [8]), the “dose accounted for in total (radioactivity)” value worked out at 58.3%; the “radioactivity in blood, percent of dose” value came to 0.7%; the radioactivity in carcass came to 51%; the “radioactivity in kidney, percent of dose” value was 1.6%. Besides, the “radioactivity in liver, percent of dose” value in data set [6] (setting [8]) is 2.6%. Also, the “Cmax and AUC in the dog relative to the rat” value in data set [7] is reported as “approximately four-fold higher”.
